Data: US20230227427A1, “IL-17A MODULATORS” (SANOFI, priority 2010, published 2023)

Biological target: T1, human recombinant IL-17A (Homo sapiens, UniProt Q16552)
T1 construct: purchased R&D Systems 7955-IL/CF
T1 sequence (Q16552 24-155): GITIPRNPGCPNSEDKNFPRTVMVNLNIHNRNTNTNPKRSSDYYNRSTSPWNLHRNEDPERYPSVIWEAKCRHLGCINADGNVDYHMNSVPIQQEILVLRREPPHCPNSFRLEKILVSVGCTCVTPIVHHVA
Experiment: IL-17A AlphaLISA assay (block binding of IL-17A to its receptor IL-17RA)
Conditions: compounds pre-incubated with the IL-17A for 30 min (indicated by * in Table A); read-out: AlphaLISA pIC50 (converted)
Outline: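 PBS with 0.05% Tween-20 and 0.1% BSA. IL-17A stock 7.5 nM, IL-17RA/Fc stock 5 nM; compound–cytokine pre-incubation 24 h at RT, or 30 min where marked, then 90 min with receptor. pIC50 from 4-parameter logistic AlphaLISA signal, normalised to DMSO and 6 μM reference inhibitor.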

Compound | IC50 [nM]
Cn1nccc1C(=O)N[C@H](C(=O)Nc1ccc(-c2c(C#N)cnn2C)cn1)[C@H]1CC[C@H](C)CC1 [Example 193, N—((S)-2-((5-(4-cyano-1-methyl-1H-pyrazol-5-yl)pyridin-2-yl)amino)-1-((1r,4S)-4-methylcyclohexyl)-2-oxoethyl)-1-methyl-1H-pyrazole-5-carboxamide] | 251
Cc1cnn(C)c1-c1ccc(NC(=O)[C@@H](NC(=O)c2conc2C(F)(F)F)[C@H]2CC[C@H](C)CC2)nc1 [Example 194, N—((S)-2-((5-(1,4-dimethyl-1H-pyrazol-5-yl)pyridin-2-yl)amino)-1-((1r,4S)-4-methylcyclohexyl)-2-oxoethyl)-3-(trifluoromethyl)isoxazole-4-carboxamide] | 158
Cc1nn(C)c(-c2ccc(NC(=O)[C@@H](NC(=O)c3ccnn3C)C3CCCCCC3)nc2)c1C [Example 195, (S)—N-(1-cycloheptyl-2-oxo-2-((5-(1,3,4-trimethyl-1H-pyrazol-5-yl)pyridin-2-yl)amino)ethyl)-1-methyl-1H-pyrazole-5-carboxamide] | 501
Cc1nsc(C)c1-c1ccc(NC(=O)[C@@H](NC(=O)c2ccnn2C)[C@H]2CC[C@H](C)CC2)nc1 [Example 196, N—((S)-2-((5-(3,5-dimethylisothiazol-4-yl)pyridin-2-yl)amino)-1-((1r,4S)-4-methylcyclohexyl)-2-oxoethyl)-1-methyl-1H-pyrazole-5-carboxamide] | 251
CCn1nccc1C(=O)N[C@H](C(=O)Nc1ccc(-c2c(CO)cnn2C)cn1)C1CCCCCC1 [Example 198, (S)—N-(1-cycloheptyl-2-((5-(4-(hydroxymethyl)-1-methyl-1H-pyrazol-5-yl)pyridin-2-yl)amino)-2-oxoethyl)-1-ethyl-1H-pyrazole-5-carboxamide] | 200
CCn1nccc1C(=O)N[C@H](C(=O)Nc1ccc(-c2c(Cl)cnn2C)cn1)[C@H]1CC[C@H](C)CC1 [Example 199, N—((S)-2-((5-(4-chloro-1-methyl-1H-pyrazol-5-yl)pyridin-2-yl)amino)-1-((1r,4S)-4-methylcyclohexyl)-2-oxoethyl)-1-ethyl-1H-pyrazole-5-carboxamide] | 100
Cn1nncc1C(=O)N[C@H](C(=O)Nc1ccc(-c2c(Cl)cnn2C)cn1)[C@H]1CC[C@H](C)CC1 [Example 200, N—((S)-2-((5-(4-chloro-1-methyl-1H-pyrazol-5-yl)pyridin-2-yl)amino)-1-((1r,4S)-4-methylcyclohexyl)-2-oxoethyl)-1-methyl-1H-1,2,3-triazole-5-carboxamide] | 398
CCc1nocc1C(=O)N[C@H](C(=O)Nc1ccc(-c2c(Cl)cnn2C)cn1)[C@H]1CC[C@H](C)CC1 [Example 201, N—((S)-2-((5-(4-chloro-1-methyl-1H-pyrazol-5-yl)pyridin-2-yl)amino)-1-((1r,4S)-4-methylcyclohexyl)-2-oxoethyl)-3-ethylisoxazole-4-carboxamide] | 79.4
CCc1nocc1C(=O)N[C@H](C(=O)Nc1ccc(-c2c(CO)cnn2C)cn1)C1CCCCCC1 [Example 202, (S)—N-(1-cycloheptyl-2-((5-(4-(hydroxymethyl)-1-methyl-1H-pyrazol-5-yl)pyridin-2-yl)amino)-2-oxoethyl)-3-ethylisoxazole-4-carboxamide] | 158
CCc1nocc1C(=O)N[C@H](C(=O)Nc1ccc(-c2c(C)noc2C)nc1)[C@H]1CC[C@H](C)CC1 [Example 203, N—((S)-2-((6-(3,5-dimethylisoxazol-4-yl)pyridin-3-yl)amino)-1-((1r,4S)-4-methylcyclohexyl)-2-oxoethyl)-3-ethylisoxazole-4-carboxamide] | 79.4
Cc1cnn(C)c1-c1ccc(NC(=O)[C@@H](NC(=O)c2ccnn2C(C)C)[C@H]2CC[C@H](C)CC2)cn1 [Example 204, N—((S)-2-((6-(1,4-dimethyl-1H-pyrazol-5-yl)pyridin-3-yl)amino)-1-((1r,4S)-4-methylcyclohexyl)-2-oxoethyl)-1-isopropyl-1H-pyrazole-5-carboxamide] | 200
CCn1nccc1C(=O)N[C@H](C(=O)Nc1ccc(-c2c(CO)cnn2C)cn1)[C@H]1CC[C@H](C)CC1 [Example 205, 1-ethyl-N—((S)-2-((5-(4-(hydroxymethyl)-1-methyl-1H-pyrazol-5-yl)pyridin-2-yl)amino)-1-((1r,4S)-4-methylcyclohexyl)-2-oxoethyl)-1H-pyrazole-5-carboxamide] | 251
Cc1noc(C)c1-c1ccc(NC(=O)[C@@H](NC(=O)c2ccnn2C(C)C)[C@H]2CC[C@H](C)CC2)cn1 [Example 206, N—((S)-2-((6-(3,5-dimethylisoxazol-4-yl)pyridin-3-yl)amino)-1-((1r,4S)-4-methylcyclohexyl)-2-oxoethyl)-1-isopropyl-1H-pyrazole-5-carboxamide] | 126
Cc1n[nH]c(C)c1-c1ccc(NC(=O)[C@@H](NC(=O)c2ccnn2C)C2CCCCC2)cn1 [Example 207, (S)—N-(1-cyclohexyl-2-((6-(3,5-dimethyl-1H-pyrazol-4-yl)pyridin-3-yl)amino)-2-oxoethyl)-1-methyl-1H-pyrazole-5-carboxamide] | 501
CCn1nccc1C(=O)N[C@H](C(=O)Nc1ccc(-c2c(C)n[nH]c2C)nc1)C1CCCCCC1 [Example 208, (S)—N-(1-cycloheptyl-2-((6-(3,5-dimethyl-1H-pyrazol-4-yl)pyridin-3-yl)amino)-2-oxoethyl)-1-ethyl-1H-pyrazole-5-carboxamide] | 63.1
Cc1n[nH]c(C)c1-c1ccc(NC(=O)[C@@H](NC(=O)c2cnnn2C)C2CCCCCC2)cn1 [Example 209, (S)—N-(1-cycloheptyl-2-((6-(3,5-dimethyl-1H-pyrazol-4-yl)pyridin-3-yl)amino)-2-oxoethyl)-1-methyl-1H-1,2,3-triazole-5-carboxamide] | 794
CCc1nocc1C(=O)N[C@H](C(=O)Nc1ccc(-c2c(C)n[nH]c2C)nc1)C1CCCCCC1 [Example 210, (S)—N-(1-cycloheptyl-2-((6-(3,5-dimethyl-1H-pyrazol-4-yl)pyridin-3-yl)amino)-2-oxoethyl)-3-ethylisoxazole-4-carboxamide] | 63.1
Cc1n[nH]c(C)c1-c1ccc(NC(=O)[C@@H](NC(=O)c2ccnn2C)[C@H]2CC[C@H](C)CC2)cn1 [Example 211, N—((S)-2-((6-(3,5-dimethyl-1H-pyrazol-4-yl)pyridin-3-yl)amino)-1-((1r,4S)-4-methylcyclohexyl)-2-oxoethyl)-1-methyl-1H-pyrazole-5-carboxamide] | 158
CCn1nccc1C(=O)N[C@H](C(=O)Nc1ccc(-c2c(C)n[nH]c2C)nc1)[C@H]1CC[C@H](C)CC1 [Example 212, N—((S)-2-((6-(3,5-dimethyl-1H-pyrazol-4-yl)pyridin-3-yl)amino)-1-((1r,4S)-4-methylcyclohexyl)-2-oxoethyl)-1-ethyl-1H-pyrazole-5-carboxamide] | 100
CCc1nocc1C(=O)N[C@H](C(=O)Nc1ccc(-c2c(C)n[nH]c2C)nc1)[C@H]1CC[C@H](C)CC1 [Example 213, N—((S)-2-((6-(3,5-dimethyl-1H-pyrazol-4-yl)pyridin-3-yl)amino)-1-((1r,4S)-4-methylcyclohexyl)-2-oxoethyl)-3-ethylisoxazole-4-carboxamide] | 100
Cc1cc(=O)n(C)c(C)c1-c1ccc(NC(=O)[C@@H](NC(=O)c2ccnn2C)C2CCCCCC2)nc1 [Example 214, (S)—N-(1-cycloheptyl-2-oxo-2-((1′,2′,4′-trimethyl-6′-oxo-1′,6′-dihydro-[3,3′-bipyridin]-6-yl)amino)ethyl)-1-methyl-1H-pyrazole-5-carboxamide] | 158
Cc1cc(=O)n(C)c(C)c1-c1ccc(NC(=O)[C@@H](NC(=O)c2ccnn2C)[C@H]2CC[C@H](C)CC2)nc1 [Example 215, 1-methyl-N—((S)-1-((1r,4S)-4-methylcyclohexyl)-2-oxo-2-((1′,2′,4′-trimethyl-6′-oxo-1′,6′-dihydro-[3,3′-bipyridin]-6-yl)amino)ethyl)-1H-pyrazole-5-carboxamide] | 126
Cc1nn(C)c(C)c1-c1ccc(NC(=O)[C@@H](NC(=O)c2ccnn2C)C2CCCCCC2)nc1 [Example 216, (S)—N-(1-cycloheptyl-2-oxo-2-((5-(1,3,5-trimethyl-1H-pyrazol-4-yl)pyridin-2-yl)amino)ethyl)-1-methyl-1H-pyrazole-5-carboxamide] | 501
Cc1nn(C)c(C)c1-c1ccc(NC(=O)[C@@H](NC(=O)c2ccnn2C)[C@H]2CC[C@H](C)CC2)nc1 [Example 217, 1-methyl-N—((S)-1-((1r,4S)-4-methylcyclohexyl)-2-oxo-2-((5-(1,3,5-trimethyl-1H-pyrazol-4-yl)pyridin-2-yl)amino)ethyl)-1H-pyrazole-5-carboxamide] | 501
Cc1n[nH]c(C)c1-c1ccc(NC(=O)[C@@H](NC(=O)c2ccnn2C)C2CCCCCC2)cn1 [Example 218, (S)—N-(1-cycloheptyl-2-((6-(3,5-dimethyl-1H-pyrazol-4-yl)pyridin-3-yl)amino)-2-oxoethyl)-1-methyl-1H-pyrazole-5-carboxamide] | 158
Cn1nccc1C(=O)N[C@H](C(=O)Nc1ccc(-c2c(C(F)(F)F)cnn2C)cn1)[C@H]1CC[C@H](C)CC1 [Example 219, 1-methyl-N—((S)-2-((5-(1-methyl-4-(trifluoromethyl)-1H-pyrazol-5-yl)pyridin-2-yl)amino)-1-((1r,4S)-4-methylcyclohexyl)-2-oxoethyl)-1H-pyrazole-5-carboxamide] | 126
Cc1cnn(C)c1-c1ccc(NC(=O)C(NC(=O)c2ccnn2C)C2C3(CC3)CCC23CC3)nc1 (stereo not drawn) [Example 220, N-(2-((5-(1,4-dimethyl-1H-pyrazol-5-yl)pyridin-2-yl)amino)-1-(dispiro[2.1.2^5.2^3]nonan-4-yl)-2-oxoethyl)-1-methyl-1H-pyrazole-5-carboxamide] | 31.6
